Data published in a melting point compilation (Tetko et al.; mined from patent text by program, amines drawn as free bases though some values may be those of a salt).

Compound	melting point [°C]
CC(C)N(C(C)C)C(C)CN1C(=O)C(=O)c2ccccc21 (stereo not drawn)	111 to 112
O=C1NCCNC1c1cn(Cc2ccc(Cl)cc2)c2ccccc12 (stereo not drawn)	195
CN(C)C(=O)c1cc(O)ccc1C=Cc1ccc(O)cc1	184 to 188
CCCCCCC(=Cc1ccccc1)C(O)Cc1nc(C)c(C)nc1C (stereo not drawn)	61 to 62
CN(C)c1ccccc1CSC1=NC(SCc2ccccc2)=NC1(C)C	91 to 92
CN1CCN(C(=O)Nc2ccc3c(c2Cl)C(c2ccccc2F)=NCC(=O)N3C)CC1	154
CCCCCCN(C[C@@H]1CCCC[C@H]1CN(CCCCCC)C(=O)Nc1ccc(N(C)C)cc1)C(=O)Nc1ccc(N(C)C)cc1 (relative stereo)	112 to 117
C[C@@H]1O[C@](/C=C/C2CC2)(C(F)(F)F)c2cc(Cl)ccc2NC1=O (relative stereo)	171 to 172
CC(=S)NCC1CN(c2ccc(N3CCC4(CC3)NC(=O)NC4=O)c(F)c2)C(=O)O1 (stereo not drawn)	218
Cn1c(CO)c(-c2ccc(F)cc2)c2ccccc21	99 to 104
NCCc1cccc(N2C(=O)N(c3ccccc3Br)Cc3cnc(Nc4ccccc4)nc32)c1	130
N#CC(=NNCc1c(Cl)cc(C(F)(F)F)cc1Cl)c1ccc(C#N)cc1	92 to 93
CC(C)(C)OC(=O)NCc1[nH]c(C(=O)O)cc(=O)c1O	> 300
Cc1ccc(NC(=O)C=Cc2ccccc2)cc1NC(=O)C=Cc1ccccc1	217 to 219
NS(=O)(=O)c1cc(C(=O)O)cc([N+](=O)[O-])c1NC1CCCCC1	185 to 186
CN1C(=O)C(N)N=C(c2ccccc2)c2ccncc21 (stereo not drawn)	94 to 118

Compound	melting point [°C]
CCN1C(=O)Cc2cc3c(cc21)C(O)CO3 (stereo not drawn)	144 to 145
C=Cc1c(F)c(F)cc(C(=O)O)c1F	108 to 110
CC(C)c1nc(CN=[N+]=[N-])n(C)c1Sc1cc(Cl)cc(Cl)c1	84 to 85
CCC(CC)(CO)CS(N)(=O)=O	66 to 68
O=C(O)CSC(F)(F)F	130
O=c1ccc(-c2ccc(CCCO)cc2)cn1Cc1ccc(Cl)cc1	165
Cc1c(F)c(N2CCC(C)(CN)C2)c(F)c2c1c(=O)c(C(=O)O)cn2C1CC1 (stereo not drawn)	182 to 184
CCCc1cn2cc(C(=O)OC)nc2s1	155 to 156
Nc1cc(NC(=O)c2cc3cc(F)ccc3n2Cc2cccc(F)c2)ccn1	217 to 218
Cc1nc2ccccc2n1-c1nc(Cl)nc(Cl)n1	> 300
O=Cc1cccc(-c2cc(-c3ccc(C(F)(F)F)cc3)no2)c1	151 to 152
O=Cc1c(N2CCNCC2)n(-c2ccccc2)c2ccccc12	175
CCN(CC)c1ccc(/C=C(\C)c2ccc3c(c2)C(C)(C)CCC3(C)C)cc1	89 to 90
Cc1c[nH]c2ccc(O)cc12	116
CC(Cc1ccc(Oc2cc(N3CCN(Cc4ccccn4)CC3)nc(N)n2)cc1)(Oc1ccccc1)C(=O)O (stereo not drawn)	138 to 139
O=C(Nc1nc(C(Cl)(Cl)Cl)ns1)c1ccccc1Cl	142

Further lines, results first:

melting point [°C]	Compound
131 to 132	O=[N+]([O-])c1ccc(Oc2ccc(-n3cncn3)cc2)cc1
153	CCCCOc1nc(N)c2[nH]c(=O)n(CCCN(CCCN3CCOCC3)Cc3cccc(CC(=O)OC)c3)c2n1
207 to 208	CCCc1nc2c(N)nc3cc(Oc4ccccc4[N+](=O)[O-])ccc3c2n1CC(C)C
187 to 189	COc1cc2ccc(-c3cc4c(cc3[N+](=O)[O-])OCO4)c([N+](=O)[O-])c2cc1OC
182 to 183	CS(=O)(=O)Nc1ccc(N2CCN(c3cc([N+](=O)[O-])ccn3)CC2)cc1
138 to 140	CC(C)(C)OC(=O)NCCOCCNC1(c2ccccc2Cl)C(=O)Nc2ccc(Cl)cc21 (stereo not drawn)
96 to 99	Cc1cc(F)ccc1-c1nc(OCCN)nc2c1ccc(=O)n2-c1c(F)cccc1F
260	Cc1nnc(N2C(=O)C(O)=C(C(=O)c3ccc(C(C)C)cc3)C2c2ccc(OC(F)(F)F)cc2)s1 (stereo not drawn)
169 to 170	CCC(C)(C)NC(Nc1ccc2c(c1)OCO2)=C(C#N)S(=O)(=O)c1ccc(Cl)cc1
103 to 104	Cc1ccc(-c2cc(F)c(F)cc2-c2ccc(S(N)(=O)=O)cc2)cc1
310 to 321	O=c1[nH]c2cc([N+](=O)[O-])c(S(=O)(=O)N(CCO)CCO)cc2[nH]c1=O
129 to 130	CCN1C(=O)C(C)(C)C(=O)N(C)c2cc(CN(CCn3ccc4oc(C)cc4c3=O)Cc3ncoc3C)ccc21
177 to 179	COC(=O)c1c(-c2cc(C)c(O)c(C)c2)c(C)n2c1-c1cc(OC)c(OC)cc1CC2C (racemic)
90.4 to 91.4	COC(=O)c1cc(-c2ccc(SC)cc2)nn(CC(C)C)c1=O
179 to 181	C#Cc1cc(C)cc(C)c1-c1c(O)c(C)nn(C)c1=O
178 to 180	O=S(=O)(Nc1ncnc(OCCO)c1-c1cccc(Cl)c1)c1ccc(Cl)cc1
170	CCCCN1C(=O)NC(=Cc2cc(OC)c(OC)cc2OC)C1=O
186 to 189	O=c1ccoc2cc(OCCCNCC3COc4ccc(O)cc4O3)ccc12 (stereo not drawn)

melting point [°C]	Compound
126 to 127	CN(C)CCNc1ccc(CNS(C)(=O)=O)c2sc3ccccc3c(=O)c12
93 to 94	COc1ccc(CC(=O)O)cc1C(C)(C)C
173 to 174	O=S(=O)(Nc1ccc2c(OCc3cccc(-c4ccc(F)cc4)n3)cccc2c1)C(F)(F)F
107 to 109	COC(=O)CCCc1cc2nc(Cl)ccc2n1S(=O)(=O)c1c(F)cccc1F
118	CCN(CCCc1c[nH]c2ccc(F)cc12)C1COc2c(F)ccc(C(=O)NC)c2C1 (stereo not drawn)
118 to 119	CCc1nn2c(-c3cccc(OC)c3)ccnc2c1C#N
185	O=C(Nc1cccc(NC2=CC(=O)c3ccccc3C2=O)c1)c1ccccc1
157 to 158	CCOc1ccc(-c2ccc3c(c2)C=C(C(=O)OC)CCN3)cc1
143	CCC(C(=O)OC)c1cccc(C(=O)c2cc3cc(C(=O)OC)sc3s2)c1 (stereo not drawn)
191 to 192	CNS(=O)(=O)c1ccc(Nc2cc(N3CCCCC3)cc(-c3ccc(F)cc3)n2)cc1
90 to 92	COc1ccc2c(c1)c(CC(=O)Oc1ccc(CN3CCN(CC(C)(C)SN=O)CC3)cc1)c(C)n2C(=O)c1ccc(Cl)cc1
137	COc1cc(-c2ccc(C(C)(C)C)s2)cc2oc(=O)c(C)c(C)c12
152 to 154	CSc1ccc(-c2ccccn2)c2c1C(=O)CC(C)(C)C2
90 to 94	COc1cccc(-c2noc(-c3ccccn3)n2)c1
198 to 200	COc1ccc2[nH]c(-c3ccccc3N)cc2c1
223	CS(=O)(=O)c1ccc(-n2cnc(Cl)c2-c2ccc(Cl)nc2)cc1
128 to 131	Cc1ccc(-c2cn(C)cc(-c3cccc(C(F)(F)F)c3)c2=O)c(C)c1
150 to 153	COc1cc(N2CCN(C)CC2)ccc1Nc1ncc2cc3ccccc3n2n1
